Experimental data reported in patent publication US8952192B2, “Phosphorylated and branched dihydroxy-pentane-dione (DPD) analogs as quorum sensing inhibitors in bacteria” (University of Maryland, College Park, priority 2011, dated 2015).

Tests used:
[1] = system: lsr expression in E. coli (lsr-lacZ reporter strains); test: QS response (lsr expression): AI-2 dependent β-galactosidase production, Miller assay; type: cell-based, Escherichia coli; conditions: E. coli ZK126 pLW11 LW8 (luxS+, lsrR−), 20 μM analog
P. aeruginosa = test: DPD analogs and representative bacterial species affected (Table 1); type: cell-based; set-up: key: x: DPD Analogs and representative bacterial species affected
[2] = system: pre-formed P. aeruginosa biofilms (PAO1); test: Effects on pre-formed P. aeruginosa biofilms (microfluidic flow cell, COMSTAT, optical density); type: cell-based
Procedure: (§1) The E. coli biofilms were formed using the strain K-12 MG1655 ATCC(47076). P. aeruginosa biofilms were formed using wild type strain PAO1. For both strains, overnight cultures were diluted to an OD600 of 0.25, introduced into the microfluidic channel, and incubated with no flow at 37° C. for 2 h. LB (Luria Bertani) growth medium was then continuously flowed into the device at a rate of 10 μL/hr. As needed, this medium was supplemented with various concentrations of analog or antibiotic at specified times. In studies of biofilm inhibition, after 2 hours of cell incubation, the analog diluted in LB medium is flown into the microfluidic channel for 48 hours at 10 μL/hr. In studies of effects on pre-formed biofilms, LB is introduced over the cells at 10 μL/hr for a period of 36 to 48 hours to yield stable biofilms. Then, the analog or analog-antibiotic combination was introduced for an additional 36 to 48 hours.
(§2) Biofilms were stained in situ for microscopy. They were first treated with a Live/Dead bacterial labeling kit (Invitrogen #L7012) in which two labeling components were mixed in a 1:1 ratio to a final volume of 10 μL. The dye was introduced into the channel at 10 μL/hr, the same flow rate as during biofilm growth. This treatment was then followed by 10 μL/hr of a 100 μg/mL calcofluor (Fluorescence Brightener 28, Sigma #F3543) solution for labeling polysaccharides contained in the biofilm matrix. The dyes are fixed by flowing in 3% paraformaldehyde at the same flow rate.
(§3) Labeled samples are imaged using a confocal microscope (Zeiss LSM710). For unpatterned coverslips, Z-stacks were obtained at 7 points in each microfluidic channel, each stack was comprised of 150 slices. For patterned coverslips used while measuring the optical density of the biofilms, two stacks were obtained in each channel (i.e. one at each pinhole). The image stacks were analyzed using COMSTAT, which provides morphological characteristics. Average biofilm thickness and biomass were averaged over the image stacks obtained at each of these 7 data points in the microfluidic channel. Additionally, surface reconstructions of the biofilms were created using Imaris (Bitplane) to aid in visualization of the resulting structures.
(§4) The data corresponding to the change in optical density of the biofilms were obtained from the photodiodes using the standard methodologies. Data for each channel (the average of the response of the two photodiodes) was normalized with respect to the optical density at 48 hours; this method reflects that as of 48 hours, the biofilms have been grown under identical conditions although their optical density values may not be identical. Additionally, since the optical density data itself fluctuates as the biofilm grows, the data for each curve was fitted using a Churchill model (Churchill et al, 1972), represented by log N=[f1^−1+f2^−1]^−1 (1)

[3] = system: E. coli biofilms (K-12 MG1655); test: Biofilm maturation in the presence of AI-2 analog (microfluidic flow cell, confocal microscopy, COMSTAT); type: cell-based
Procedure: as §1, §2, §3

[4] = system: pre-formed E. coli biofilms (K-12 MG1655); test: Effects on pre-formed E. coli biofilms (microfluidic flow cell, COMSTAT, optical density); type: cell-based
Procedure: as §1, §2, §3, §4

S. typhimurium = test: DPD analogs and representative bacterial species affected (Table 1); type: cell-based; set-up: key: x: DPD Analogs and representative bacterial species affected
E. coli W3110 pCT6 = test: Trispecies synthetic ecosystem: AI-2 stimulated GFP expression, flow cytometry; type: cell-based; conditions: trispecies co-culture, flow cytometry after 8 hours; 60.7% without analog
Text: To investigate the effect of the DPD analogs in a mixed bacterial environment, a synthetic ecosystem composed of three different bacterial populations was assembled. Specifically, S. typhimurium MET708, V. harveyi BB170 and E. coli W3110 (pCT6), each luxS^+ (Table 2), and each producing their native AI-2 were co-cultured in the same tubes. By design, each species was selected so that a different reporter probe would indicate the specific bacterium's QS response: S. typhimurium (MET708) expresses β-galactosidase; V. harveyi (BB170) elicits bioluminescience; and E. coli (W331) are engineered to synthesize GFP. In this way, their responses can be differentiated and quantified in response to AI-2.
The S. typhimurium MET708, V. harveyi BB170 and E. coli W3110 pCT6 were each cultured separately overnight in LM medium supplemented with the appropriate antibiotic. […] The V. harveyi luminescence response was measured after 2.5 hours. The S. typhimurium lacZ (β-galactosidase) activity was measured after 4 hours. The E. coli response was determined after 8 hours, by fixing the cells with 1:1 cold 4% paraformaldehyde and using flow cytometric analysis. Samples were analyzed by flow cytometery (FACS Canto II, BD 394 Biosciences), with 20,000 gated events analyzed per sample.

[5] = 100 μM isobutyl-DPD combined with gentamicin 5 μg/ml

SMILES | difference in lsr expression versus control in lsrR null mutant [1] | bacterial species affected: P. aeruginosa (P. aeruginosa) | biofilm reduction ([2]; 100 uM phenyl DPD alone) | biofilm reduction ([2]; gentamicin and 100 uM phenyl DPD combined) | biofilm biomass ([2]; phenyl-DPD 100 μM combined with gentamicin 5 μg/ml, untreated 15 μm^3/μm^2) | biofilm thickness ([2]; phenyl-DPD 100 μM combined with gentamicin 5 μg/ml, untreated 26 μm) | course of biofilm optical density after 48 h, in words ([2]; phenyl-DPD combined with gentamicin, continuous optical density measurement) | average biofilm biomass ([3]; 40 μM, 48 h, LB only 14 μm^3/μm^2) | average biofilm thickness ([3]; 40 μM, 48 h, LB only 22 μm) | inhibition of biofilm growth ([3]; 40 μM, 48 h continuous exposure in LB) | effect on biofilm thickness of increasing concentration, in words ([3]; 100 μM versus 40 μM) | average biofilm thickness ([4]; 40 μM isobutyl-DPD combined with gentamicin 5 μg/ml) | average biofilm thickness [4, 5] | effect on biofilm biomass, in words [4, 5] | reduction in biofilm thickness [4, 5] | course of biofilm optical density after 48 h, in words ([4]; isobutyl-DPD combined with gentamicin, continuous optical density measurement) | bacterial species affected: S. typhimurium (S. typhimurium) | QS positive (green, GFP) cells of the E. coli population after analog addition (E. coli W3110 pCT6)
O=C(C(=O)C(O)CO)c1ccccc1 (stereo not drawn) [Phenyl-DPD, Phenyl DPD] | exception | x | about 40% | ~100% | < 2 μm^3/μm^2 | 2 μm | reversed biofilm growth | – | – | – | – | – | – | – | – | – | – | –
CC(C)CC(=O)C(=O)[C@@H](O)CO [Isobutyl-DPD, isobutyl-DPD] | – | – | – | – | – | – | – | 3.5 μm^3/μm^2 | 7 μm | ~70% | no further inhibitory effect | 6 μm | 2 μm | nearly complete removal of biomass | more than 80% | reversed biofilm growth | x | 0.7%
